Assay results: patent publication US20240174744A1, “METHODS OF TREATMENT USING PROTEIN BINDERS TO IRHOM2 EPITOPES” (SCIRHOM GMBH, priority 2021, published 2024)

Tested on: DSS-induced colitis (IBD)
Assay: DSS-induced colitis (IBD) model in humanized NCG mice
Type: in vivo, mouse
Conditions: 25 mg/kg i.p. every two days, 8 mice per group
Description: In the following study, an in vivo model was performed to verify the inhibitory effects of the antibodies of the present disclosure on DSS-induced colitis (IBD) in a mouse model for acute IBD. The experiment was carried out with female NOD/Shi-scid/IL-2Rγ null immunodeficient mouse strain (NCG). Mice were humanized using hematopoietic stem cells (CD34+) isolated from human cord blood following TransCure bioServices's proprietary humanization protocol. Only mice with a humanization rate (hCD45/total CD45) above 25% were used.
On day 1, mice were randomized based on the humanization rate and cord blood donors, acute colitis was induced by adding 3% of DSS (Sigma Aldrich, France) in drinking water (MilliQ water provided ad libitum) during […] from D1 to D7 and renewed every 2 days (only for groups #2, #3, #4, #5 and #6). For the recovery period, after the DSS cycle, the DSS solution was removed and replaced by MilliQ water (washout period) during 5 days from day 8 to day 12. […]
Endoscopy score was determined at D5 and D10. […] The endoscope was rectally inserted, and photographs of the endoscopic procedure were recorded. […]
Colon damages were evaluated during the endoscopy using TransCure bioServices's murine endoscopic index of colitis severity (MEICS) that consists of colon thickening, changes of vascular pattern, visible fibrin, granularity of mucosal surface and stool consistency as scoring parameters. […]
All mice were clinically monitored during the whole study for unexpected signs of distress, changes in body weight and evolution of disease severity. These parameters were recorded daily and each mouse was assigned a global IBD score, consisting of body weight, diarrhea & stool consistency and bleeding. The latter two were assessed by visually monitoring stool and mouse hairs around the anus and tail. Moreover, the mortality was also recorded.

## Infliximab: Infliximab (Merck Sharp & Dohme, USA), comparator group #3
  mice that survived the complete study period: two out of 8

## Tocilizumab: Tocilizumab (Roche, Switzerland), comparator group #4
  mice that survived the complete study period: one out of 8

## Adalimumab
  mice that survived the complete study period: two out of 8
